Data from the NIST ThermoML archive (doi:10.1021/je034012m).
“And” between values parts separate entries of the source, which are not always exact repeats. Equal entries are not always repeated.

Details: Crystal

O.O.[Ba+2].[Cl-].[Cl-] [barium chloride dihydrate]
Details | vapor or sublimation pressure
295.45 K | 0.5 kPa
295.55 K | 0.39 kPa and 0.53 kPa
295.65 K | 0.56 kPa
297.35 K | 0.31 kPa
304.25 K | 1.22 kPa
304.55 K | 0.9 kPa
306.35 K | 1.01 kPa
306.95 K | 1.31 kPa
307.25 K | 1.39 kPa
307.35 K | 1.04 kPa
308.25 K | 1.19 kPa
309.45 K | 1.3 kPa
319.05 K | 2.5 kPa
321.15 K | 2.66 kPa
323.15 K | 3.88 kPa
323.45 K | 3.85 kPa
323.75 K | 3.97 kPa
324.15 K | 4.05 kPa
324.85 K | 5.15 kPa
325.55 K | 5.1 kPa
336.95 K | 9.4 kPa
343.65 K | 13.59 kPa

O.[Ba+2].[Cl-].[Cl-] [barium chloride monohydrate]
Details | vapor or sublimation pressure
290.45 K | 0.086 kPa
304.15 K | 0.173 kPa
304.45 K | 0.146 kPa
305.25 K | 0.138 kPa
307.25 K | 0.133 kPa
307.45 K | 0.231 kPa
307.95 K | 0.17 kPa
308.05 K | 0.142 kPa
308.45 K | 0.248 kPa and 0.272 kPa
308.65 K | 0.241 kPa
308.95 K | 0.105 kPa
309.05 K | 0.195 kPa
309.25 K | 0.344 kPa
310.15 K | 0.199 kPa
311.45 K | 0.16 kPa
312.95 K | 0.24 kPa
313.45 K | 0.274 kPa
315.35 K | 0.35 kPa
315.95 K | 0.4 kPa
316.15 K | 0.76 kPa
318.45 K | 0.312 kPa
322.85 K | 0.6 kPa
323.55 K | 0.6 kPa
334.45 K | 1.04 kPa and 1.1 kPa
334.85 K | 1.01 kPa
334.95 K | 0.96 kPa
335.45 K | 1.26 kPa
337.45 K | 1.51 kPa
337.65 K | 1.47 kPa
344.95 K | 2.06 kPa
345.25 K | 2.05 kPa
